Measured values from article PMC12301304 (Frontiers in Pharmacology, 2025).
Where two headings read alike, the source gives them in different places.

Key:
CYP2c13 = molecular target: T1, CYP2c13 (Rattus norvegicus, UniProt P20814); assay: RLM incubation: metabolic clearance rate of mephenytoin (CYP2c13); details: RLM 0.5 mg/mL, 30 min 37°C, inhibitor added, blank control 15.97 ± 0.68, n = 3
T1 sequence (P20814 1-490): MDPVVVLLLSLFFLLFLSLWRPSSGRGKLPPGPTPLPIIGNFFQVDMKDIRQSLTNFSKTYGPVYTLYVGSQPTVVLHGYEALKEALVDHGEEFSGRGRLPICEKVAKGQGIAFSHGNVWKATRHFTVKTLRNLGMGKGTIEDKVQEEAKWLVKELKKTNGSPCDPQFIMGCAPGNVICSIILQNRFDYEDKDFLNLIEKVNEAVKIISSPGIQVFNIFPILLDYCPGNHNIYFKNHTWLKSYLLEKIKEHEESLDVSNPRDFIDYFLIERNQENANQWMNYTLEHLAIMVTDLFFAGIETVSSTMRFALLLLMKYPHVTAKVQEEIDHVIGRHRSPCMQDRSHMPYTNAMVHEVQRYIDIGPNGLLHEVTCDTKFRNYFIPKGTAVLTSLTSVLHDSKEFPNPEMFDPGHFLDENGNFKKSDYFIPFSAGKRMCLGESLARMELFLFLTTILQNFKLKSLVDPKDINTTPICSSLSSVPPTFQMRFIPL
Method: (§1) The effect of the Zhicaowu–Hezi combination on CYP450 enzymes in RLM was evaluated by assessing the metabolic clearance rates of theophylline, metoprolol, bupropion, mephenytoin (CYP2c13), chlorzoxazone, testosterone, and diclofenac.
(§2) On day 15, the rats were humanely euthanized, and liver tissues were excised for microsomal preparation. […] Livers from each group were repeatedly washed with ice-cold phosphate buffered saline (PBS). […] Subsequently, they were blotted dry with filter paper, weighed, and homogenized by adding 4 mL of ice-cold PBS per gram of liver tissue. The mixture was homogenized in an ice bath. The liver homogenate was subjected to centrifugation at 10,000 RPM for 20 min at 4°C. The resulting supernatant was then combined with an ice-cold 88-mmol/L CaCl2 solution at a 1:1 ratio, and the mixture was homogenized in an ice bath for 5 min. The resulting solution was then centrifuged at 25,000 × g for 30 min at 4°C. The supernatant was discarded and the precipitate was repeatedly resuspended in PBS–20% glycerol buffer. The precipitate was then stored in a separate bottle at −80°C for backup. The protein concentration of the prepared RLM was determined using a bicinchoninic acid protein assay kit.
(§3) Preincubation was conducted for 5 min in a water bath at 37°C, after which NADPH (1 mmol/L) was added, and incubation continued for 30 min at 37°C. Once the incubation period elapsed, the reaction was terminated by the addition of an ice-cold IS-containing acetonitrile solution. The samples were vortexed for 2 min and centrifuged at 15,000 RPM for 10 min. The resulting supernatant was filtered through a 0.22-μm organic microporous membrane, and 20 μL of the filtered solution was injected into the HPLC assay. To prevent the organic solvents from inducing or inhibiting the enzyme, the volume fraction of organic solvents in the entire incubation system was maintained at 1%. […] The inhibitor group was added with corresponding inhibitor, while all other procedures remained identical.

CYP2b1 = molecular target: T2, CYP2b1 (Rattus norvegicus, UniProt P00176); assay: RLM incubation: metabolic clearance rate of bupropion (CYP2b1); details: RLM 0.5 mg/mL, 30 min 37°C, inhibitor added, blank control 7.92 ± 0.60, n = 3
T2 sequence (P00176 1-491): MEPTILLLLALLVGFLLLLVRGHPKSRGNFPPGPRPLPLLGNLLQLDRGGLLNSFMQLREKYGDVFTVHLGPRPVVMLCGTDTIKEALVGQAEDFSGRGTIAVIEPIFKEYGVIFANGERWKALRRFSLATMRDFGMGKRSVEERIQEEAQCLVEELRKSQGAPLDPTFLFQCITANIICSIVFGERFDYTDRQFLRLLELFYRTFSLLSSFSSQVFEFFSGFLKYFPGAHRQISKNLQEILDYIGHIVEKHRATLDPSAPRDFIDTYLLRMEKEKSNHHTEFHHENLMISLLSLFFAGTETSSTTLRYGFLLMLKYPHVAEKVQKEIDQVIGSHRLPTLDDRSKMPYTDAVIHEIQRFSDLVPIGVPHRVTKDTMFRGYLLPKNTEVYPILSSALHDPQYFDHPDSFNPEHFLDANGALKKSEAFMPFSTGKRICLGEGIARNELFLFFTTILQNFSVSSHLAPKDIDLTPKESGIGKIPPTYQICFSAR
Method: as §1, §2, §3

CYP3a1 = molecular target: T3, CYP3a1 (Rattus norvegicus, UniProt P04800)
T3 sequence (P04800 1-504): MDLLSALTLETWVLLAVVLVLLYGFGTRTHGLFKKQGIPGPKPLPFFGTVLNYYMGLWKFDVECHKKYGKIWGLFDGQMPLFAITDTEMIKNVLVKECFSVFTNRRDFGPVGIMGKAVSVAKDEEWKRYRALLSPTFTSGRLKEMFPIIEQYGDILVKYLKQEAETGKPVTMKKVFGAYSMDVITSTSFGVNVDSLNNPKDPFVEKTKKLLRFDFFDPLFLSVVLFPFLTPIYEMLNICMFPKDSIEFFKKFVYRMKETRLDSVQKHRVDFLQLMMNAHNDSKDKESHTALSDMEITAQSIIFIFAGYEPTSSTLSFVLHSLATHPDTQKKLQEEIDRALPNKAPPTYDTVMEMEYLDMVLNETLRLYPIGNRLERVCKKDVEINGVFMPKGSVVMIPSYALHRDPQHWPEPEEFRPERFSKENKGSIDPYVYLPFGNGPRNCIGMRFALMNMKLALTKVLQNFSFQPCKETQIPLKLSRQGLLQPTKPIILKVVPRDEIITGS
Method: as §1, §2, §3

CYP1a2 = molecular target: T4, CYP1a2 (Rattus norvegicus, UniProt P04799); details: microsomes
T4 sequence (P04799 1-513): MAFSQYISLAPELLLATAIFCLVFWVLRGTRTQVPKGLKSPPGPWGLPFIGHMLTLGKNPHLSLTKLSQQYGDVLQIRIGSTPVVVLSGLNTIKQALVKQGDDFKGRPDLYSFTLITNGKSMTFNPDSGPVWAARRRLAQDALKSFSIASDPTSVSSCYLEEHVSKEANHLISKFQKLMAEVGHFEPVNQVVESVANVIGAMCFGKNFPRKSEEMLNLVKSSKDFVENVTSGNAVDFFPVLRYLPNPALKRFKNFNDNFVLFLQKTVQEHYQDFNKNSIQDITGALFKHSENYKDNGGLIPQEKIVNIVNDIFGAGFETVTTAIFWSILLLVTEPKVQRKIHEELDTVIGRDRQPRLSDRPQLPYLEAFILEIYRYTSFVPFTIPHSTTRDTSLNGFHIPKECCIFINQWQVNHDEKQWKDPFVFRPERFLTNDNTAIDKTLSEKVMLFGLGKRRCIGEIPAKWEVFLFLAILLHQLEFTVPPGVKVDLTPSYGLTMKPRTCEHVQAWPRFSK
Method: as §1, §2, §3

CYP2d2 = molecular target: T5, CYP2d2 (Rattus norvegicus, UniProt P10634)
T5 sequence (P10634 1-500): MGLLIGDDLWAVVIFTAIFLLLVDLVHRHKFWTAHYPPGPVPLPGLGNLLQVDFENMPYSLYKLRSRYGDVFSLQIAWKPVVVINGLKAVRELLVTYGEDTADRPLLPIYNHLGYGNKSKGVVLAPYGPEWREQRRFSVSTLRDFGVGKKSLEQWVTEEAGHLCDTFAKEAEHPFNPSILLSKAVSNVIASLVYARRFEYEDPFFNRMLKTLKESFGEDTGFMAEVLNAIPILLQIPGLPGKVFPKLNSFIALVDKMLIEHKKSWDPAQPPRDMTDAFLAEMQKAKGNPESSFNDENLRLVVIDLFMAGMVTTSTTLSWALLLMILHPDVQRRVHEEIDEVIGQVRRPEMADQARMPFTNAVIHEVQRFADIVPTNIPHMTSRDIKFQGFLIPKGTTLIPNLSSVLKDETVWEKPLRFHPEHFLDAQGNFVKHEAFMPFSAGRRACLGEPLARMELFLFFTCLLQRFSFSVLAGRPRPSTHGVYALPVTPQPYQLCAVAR
Method: as §1, §2, §3

CYP2e1 = CYP2e1 (Rattus norvegicus, UniProt P05182); assay: RLM incubation: metabolic clearance rate of chlorzoxazone (CYP2e1); details: RLM 0.5 mg/mL, 30 min 37°C, inhibitor added, blank control 15.80 ± 0.34, n = 3
Chain of CYP2e1 (P05182 whole entry): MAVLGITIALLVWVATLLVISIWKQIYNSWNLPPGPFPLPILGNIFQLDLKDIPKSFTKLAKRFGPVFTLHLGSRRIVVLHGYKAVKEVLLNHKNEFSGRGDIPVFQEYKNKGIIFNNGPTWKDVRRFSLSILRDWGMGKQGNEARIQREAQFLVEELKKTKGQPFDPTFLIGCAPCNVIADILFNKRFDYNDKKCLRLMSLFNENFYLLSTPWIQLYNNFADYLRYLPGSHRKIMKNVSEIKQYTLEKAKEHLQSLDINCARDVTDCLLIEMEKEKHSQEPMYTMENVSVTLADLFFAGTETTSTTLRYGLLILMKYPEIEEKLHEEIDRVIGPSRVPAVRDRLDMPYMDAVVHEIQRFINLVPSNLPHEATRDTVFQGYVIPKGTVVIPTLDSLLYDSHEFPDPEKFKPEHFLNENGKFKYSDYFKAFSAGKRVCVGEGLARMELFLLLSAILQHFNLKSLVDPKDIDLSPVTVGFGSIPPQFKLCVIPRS
Method: as §1, §2
Preincubation was conducted for 5 min in a water bath at 37°C, after which NADPH (1 mmol/L) was added, and incubation continued for 30 min at 37°C. […]

CYP2c11 = molecular target: T6, CYP2c11 (Rattus norvegicus, UniProt P08683); details: RLM 0.5 mg/mL, 30 min 37°C, inhibitor added, probe diclofenac; blank control 21.12 ± 3.80; n = 3
T6 sequence (P08683 1-500): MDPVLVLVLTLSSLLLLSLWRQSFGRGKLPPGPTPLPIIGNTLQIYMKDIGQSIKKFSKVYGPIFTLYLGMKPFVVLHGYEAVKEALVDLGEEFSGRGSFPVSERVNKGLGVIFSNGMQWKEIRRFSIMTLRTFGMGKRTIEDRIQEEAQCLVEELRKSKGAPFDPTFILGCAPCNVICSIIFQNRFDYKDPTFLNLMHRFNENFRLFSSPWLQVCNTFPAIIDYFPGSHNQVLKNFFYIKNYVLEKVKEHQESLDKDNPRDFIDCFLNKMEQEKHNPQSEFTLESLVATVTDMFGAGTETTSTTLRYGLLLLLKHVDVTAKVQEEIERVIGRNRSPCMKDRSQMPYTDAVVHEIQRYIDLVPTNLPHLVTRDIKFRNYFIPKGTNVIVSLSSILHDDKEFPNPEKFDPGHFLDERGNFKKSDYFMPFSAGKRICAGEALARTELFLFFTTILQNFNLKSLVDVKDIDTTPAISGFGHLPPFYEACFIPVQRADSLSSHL
Method: as §1, §2, §3

[1] = Pharmacokinetics of the seven cocktail probe drugs in blank control rats (Group C); details: for AUC(0-inf) / AUC(0-t) / CL/F / Cmax / half-life: rat, in vivo, po; for t1/2 z: probe drug in rat plasma, cocktail by gavage, Group C (0.3% CMC-Na 14 d), n = 8
Method: The effect of the Zhicaowu–Hezi combination on CYP450 enzymes in rats was evaluated by examining the pharmacokinetics of theophylline (CYP1a2), metoprolol (CYP2d2), bupropion (CYP2b1), omeprazole (CYP2c13), chlorzoxazone (CYP2e1), testosterone (CYP3a1), and diclofenac (CYP2c11).
The collected blood was placed in sodium heparin-treated centrifuge tubes and centrifuged at 4°C for 10 min at 3,000 RPM. […] After 10 min of sedimentation, the supernatant was extracted through a 0.22-μm microporous membrane, 20 μL of which was injected into HPLC. The pharmacokinetic parameters of each probe drug were calculated using the non-atrial compartment model in Drug and Statistics software (DAS, 3.0; Shanghai, China).

[2] = ref Jin et al., 2024, cited from earlier work

| SMILES | AUC(0-inf) [1] [ng·h/mL] | AUC(0-t) [1] [ng·h/mL] | CL/F [1] [mL/min/kg] | Cmax [1] [ng/mL] | half-life [1] [h] | further results |
| --- | --- | --- | --- | --- | --- | --- |
| CC(=O)N1CCN(c2ccc(OCC3COC(Cn4ccnc4)(c4ccc(Cl)cc4Cl)O3)cc2)CC1 (stereo not shown) [Ketoconazole, ketoconazole] |  |  |  |  |  | CYP2c13(%) metabolic clearance rate of probe drug (CYP2c13): 17.26 ± 1.08%; CYP2b1(%) metabolic clearance rate of probe drug (CYP2b1): 7.11 ± 0.17%; CYP3a1 (%) metabolic clearance rate of probe drug (CYP3a1): 5.45 ± 2.49 %; CYP1a2 (%) metabolic clearance rate of probe drug (CYP1a2): 36.04 ± 1.71%; CYP2d2 (%) metabolic clearance rate of probe drug (CYP2d2): 12.73 ± 1.11% |
| Nc1ccc(S(=O)(=O)Nc2ccnn2-c2ccccc2)cc1 [Sulfaphenazolum] |  |  |  |  |  | CYP2c13(%) metabolic clearance rate of probe drug (CYP2c13): 16.47 ± 1.34%; CYP2b1(%) metabolic clearance rate of probe drug (CYP2b1): 7.74 ± 0.98%; CYP2e1 (%) metabolic clearance rate of probe drug (CYP2e1): 16.11 ± 0.18%; CYP2c11(%) metabolic clearance rate of probe drug (CYP2c11): 6.16 ± 0.65 %; CYP3a1 (%) metabolic clearance rate of probe drug (CYP3a1; RLM 0.5 mg/mL, 30 min 37°C, inhibitor added, probe testosterone, blank control 25.04 ± 1.93, n = 3): 25.69 ± 1.69%; CYP2d2 (%) metabolic clearance rate of probe drug (CYP2d2; RLM 0.5 mg/mL, 30 min 37°C, inhibitor added, probe metoprolol, blank control […] ± 2.12, n = 3): 13.50 ± 0.30% |
| CC(NC(C)(C)C)C(=O)c1cccc(Cl)c1 (stereo not shown) [bupropion] | 16300 ± 1410 | 15800 ± 1320 | 7.16 | 1300 ± 93 | 18.7 ± 0.948 |  |
| O=C(O)Cc1ccccc1Nc1c(Cl)cccc1Cl [diclofenac] | 5470 ± 358 | 5230 ± 465 | 42.3 | 1080 ± 115 | 4.98 ± 0.557 |  |
| CC1(C)[C@@H](O[C@H]2O[C@H](C(=O)O)[C@@H](O)[C@H](O)[C@H]2O[C@@H]2O[C@H](C(=O)O)[C@@H](O)[C@H](O)[C@H]2O)CC[C@]2(C)[C@H]3C(=O)C=C4[C@@H]5C[C@@](C)(C(=O)O)CC[C@]5(C)CC[C@@]4(C)[C@]3(C)CC[C@@H]12 [glycyrrhizin] |  |  |  |  |  | reduction of systemic exposure to aconitine ([2]; glycyrrhizin by intravenous injection): 33%; reduction of systemic exposure to aconitine ([2]; glycyrrhizin by oral gavage): 27% |
| COCCc1ccc(OCC(O)CNC(C)C)cc1 (stereo not shown) [metoprolol] | 10100 ± 1480 | 9600 ± 988 | 26.3 | 891 ± 114 | 7.95 ± 1.15 |  |
| COc1ccc2[nH]c([S+]([O-])Cc3ncc(C)c(OC)c3C)nc2c1 (stereo not shown) [omeprazole] | 3900 ± 394 | 3840 ± 372 | 43.4 | 995 ± 78 |  | t1/2 z [1]: 4.689 ± 0.467 h |
| C[C@]12CC[C@H]3[C@@H](CCC4=CC(=O)CC[C@@]43C)[C@@H]1CC[C@@H]2O [testosterone] | 1410 ± 69 | 1210 ± 81 | 66.8 | 295 ± 54 | 11.1 ± 1.11 |  |
| Cn1c(=O)c2[nH]cnc2n(C)c1=O [theophylline] | 22500 ± 1440 | 21900 ± 1250 | 7.75 | 1810 ± 94 |  | t1/2 z [1]: 5.273 ± 0.526 h |
